Source: ChEMBL document CHEMBL5500403, “Discovery of a Double-Stapled Short Peptide as a Long-Acting HIV-1 Inactivator with Potential for Oral Bioavailability” (J Med Chem, 2024)
Bridge positions count the residues as written; N and C are the ends. Square brackets hold non-standard residues; d marks the D form. Peptide text beside a SMILES is read from it. S5 = C=CCCC[C@](C)(N)C(=O)O

Legend:
[1] = Selectivity index, ratio of CC50 for cytotoxicity against human MT2 cells to IC50 for antiviral activity against HIV-1 IIIB infected in human MT2 cells; type: toxicity, cell-based; conditions: read-out: Ratio CC50/IC50
[2] = tested on: Human immunodeficiency virus 1; assay: Antiviral activity against HIV-1 IIIB infected in human MT2 cells assessed as inhibition of viral growth pretreated with virus for 30 mins followed by infection with cells incubated for 72 hrs by ELISA; type: functional, organism-based; conditions: Human immunodeficiency virus 1, IIIB
[3] = Cytotoxicity against human MT2 cells; type: toxicity, cell-based
[4] = Volume of distribution at steady state in Sprague-Dawley rat at 1 mg/kg,iv administration measured upto 9 days by LC-MS/MS analysis; type: ADME, organism-based; conditions: in vivo, time < 9 day, read-out: Vdss
[5] = Biodistribution in Sprague-Dawley rat brain at 1 mg/kg,iv administration measured after 5 mins by LC-MS/MS analysis; type: ADME, organism-based; conditions: in vivo
[6] = tested on: Human immunodeficiency virus 1; assay: Antiviral activity against T20-resistant HIV-1 NL4-3 harboring […] N42T and N43K mutant infected in human MT2 cells assessed as inhibition of viral growth pretreated with virus for 30 mins followed by infection with cells incubated for 72 hrs by ELISA; type: functional, organism-based
chymotrypsin = chymotrypsin (Homo sapiens, UniProt P17538+P40313+Q6GPI1+Q99895); assay: Proteolytic stability assessed as Chymotrypsin (unknown origin) mediated compound degradation by measuring parent compound remaining incubated for 2 hrs by LC-MS/MS analysis; type: ADME, protein assay; conditions: read-out: Stability
[7] = tested on: Human immunodeficiency virus 1; assay: Antiviral activity against T20-resistant HIV-1 NL4-3 harboring […] V38E and N42S mutant infected in human MT2 cells assessed as inhibition of viral growth pretreated with virus for 30 mins followed by infection with cells incubated for 72 hrs by ELISA; type: functional, organism-based
[8] = tested on: Human immunodeficiency virus 1; assay: Antiviral activity against HIV-1 IIIB assessed as reduction in viral growth by measuring p24 antigen level incubated for 2 hrs by ELISA; type: functional, organism-based; conditions: Human immunodeficiency virus 1, IIIB
[9] = Biodistribution in Sprague-Dawley rat brain at 1 mg/kg,iv administration measured after 144 hrs by LC-MS/MS analysis; type: ADME, organism-based; conditions: in vivo
[10] = tested on: Human immunodeficiency virus 1; assay: Antiviral activity against T20-resistant HIV-1 NL4-3 harboring […] N42T and N43K mutant assessed as reduction in viral growth by measuring p24 antigen level incubated for 2 hrs by ELISA; type: functional, organism-based
[11] = Stability in rat liver assessed as parent compound remaining at 1 ug/ml incubated for 1 hr by LC-MS/MS analysis; type: ADME, tissue-based; conditions: at 1 µg/mL, read-out: Stability
[12] = AUClast in Sprague-Dawley rat at 1 mg/kg,iv administration measured upto 9 days by LC-MS/MS analysis; type: ADME, organism-based; conditions: in vivo, time < 9 day
[13] = Proteolytic stability assessed as Pepsin (unknown origin) mediated compound degradation incubated for 4 hrs by LC-MS/MS analysis; type: ADME; conditions: human
[14] = Drug concentration in Sprague-Dawley rat plasma at 50 mg/kg,po administrated for 5 days by LC-MS/MS analysis; type: ADME, organism-based; conditions: in vivo, 120 h, time 5 day
[15] = tested on: Human immunodeficiency virus 1; assay: Antiviral activity against T20-resistant HIV-1 NL4-3 harboring […] N38A and N42T mutant assessed as reduction in viral growth by measuring p24 antigen level incubated for 2 hrs by ELISA; type: functional, organism-based
[16] = Drug degradation in rat plasma at 1 ug/ml incubated for 1 hr by LC-MS/MS analysis; type: ADME, cell-free; conditions: at 1 µg/mL
[17] = Total clearance in Sprague-Dawley rat at 1 mg/kg,iv administration measured upto 9 days by LC-MS/MS analysis; type: ADME, organism-based; conditions: in vivo, time < 9 day
[18] = tested on: Human immunodeficiency virus 1; assay: Antiviral activity against T20-resistant HIV-1 NL4-3 harboring […] V38E and N42S mutant assessed as reduction in viral growth by measuring p24 antigen level incubated for 2 hrs by ELISA; type: functional, organism-based
[19] = tested on: Human immunodeficiency virus 1; assay: Antiviral activity against HIV-1 Bal-R5 assessed as reduction in viral growth by measuring p24 antigen level incubated for 2 hrs by ELISA; type: functional, organism-based; conditions: Human immunodeficiency virus 1, Bal-R5, 2 h
[20] = tested on: Human immunodeficiency virus 1; assay: Antiviral activity against HIV-1 clinical isolate X4-89BZ167 assessed as reduction in viral growth by measuring p24 antigen level incubated for 2 hrs by ELISA; type: functional, organism-based; conditions: Human immunodeficiency virus 1, clinical isolate X4-89BZ167, 2 h
[21] = MRT in Sprague-Dawley rat at 1 mg/kg,iv administration measured upto 9 days by LC-MS/MS analysis; type: ADME, organism-based; conditions: in vivo, time < 9 day
[22] = tested on: Human immunodeficiency virus 1; assay: Antiviral activity against T20-resistant HIV-1 NL4-3 harboring […] N38A and N42T mutant infected in human MT2 cells assessed as inhibition of viral growth pretreated with virus for 30 mins followed by infection with cells incubated for 72 hrs by ELISA; type: functional, organism-based
[23] = Elimination half life in Sprague-Dawley rat at 1 mg/kg,iv administration measured upto 9 days by LC-MS/MS analysis; type: ADME, organism-based; conditions: in vivo, time < 9 day, read-out: beta t1/2 (converted)
[24] = Proteolytic stability assessed as proteinase K (unknown origin) mediated compound degradation incubated for 4 hrs by LC-MS/MS analysis; type: ADME; conditions: human
[25] = Plasma protein binding in human by LC-MS/MS analysis; type: ADME, cell-free; conditions: read-out: PPB (converted)
[26] = Plasma protein binding in rat by LC-MS/MS analysis; type: ADME, cell-free; conditions: read-out: PPB (converted)

Compound: CC(=O)NCC(=O)N[C@@H](Cc1c[nH]c2ccccc12)C(=O)N[C@@H](CCC(=O)O)C(=O)N[C@@H](C)C(=O)N[C@@H](CC(C)C)C(=O)N[C@@H](CCCCN)C(=O)N[C@@H](Cc1ccc(O)cc1)C(=O)N[C@@H](CC(C)C)C(=O)N[C@@]1(C)CCC/C=C\CCC[C@@](C)(C(=O)N[C@@H](Cc2ccc(O)cc2)C(=O)N[C@@H](Cc2c[nH]c3ccccc23)C(N)=O)NC(=O)[C@H](CC(C)C)NC(=O)[C@H](CC(C)C)NC(=O)[C@H](CC(N)=O)NC1=O (Ac-GWEALKYL[S5]NLL[S5]YW-NH2; staple (Z) 9-13)
- selectivity ratio [1]: 36.9
- IC50 [2]: 160 nM
- CC50 [3]: 5.87 µM

Compound: CC(=O)NCC(=O)N[C@@H](Cc1c[nH]c2ccccc12)C(=O)N[C@@H](CCC(=O)O)C(=O)N[C@@H](C)C(=O)N[C@@H](CC(C)C)C(=O)N[C@@H](CCCCN)C(=O)N[C@@H](Cc1ccc(O)cc1)C(=O)N[C@@]1(C)CCC/C=C\CCC[C@@](C)(C(=O)N[C@@H](CCC(N)=O)C(=O)N[C@@H](Cc2ccc(O)cc2)C(=O)N[C@@H](Cc2c[nH]c3ccccc23)C(N)=O)NC(=O)[C@H](CC(C)C)NC(=O)[C@H](CC(N)=O)NC(=O)[C@H](Cc2c[nH]c3ccccc23)NC1=O (Ac-GWEALKY[S5]WNL[S5]QYW-NH2; staple (Z) 8-12)
- selectivity ratio [1]: 26.1
- IC50 [2]: 95.5 nM
- CC50 [3]: 2.49 µM

Compound: CC(=O)NCC(=O)N[C@@H](Cc1c[nH]c2ccccc12)C(=O)N[C@@H](CCC(=O)O)C(=O)N[C@@H](C)C(=O)N[C@@]1(C)CCC/C=C\CCC[C@@](C)(C(=O)N[C@@H](CC(N)=O)C(=O)N[C@@H](CC(C)C)C(=O)N[C@@H](CC(C)C)C(=O)N[C@@H](CCC(N)=O)C(=O)N[C@@H](Cc2ccc(O)cc2)C(=O)N[C@@H](Cc2c[nH]c3ccccc23)C(N)=O)NC(=O)[C@H](CC(C)C)NC(=O)[C@H](Cc2ccc(O)cc2)NC(=O)[C@H](CCCCN)NC1=O (Ac-GWEA[S5]KYL[S5]NLLQYW-NH2; staple (Z) 5-9)
- IC50 [2]: > 2000 nM

Compound: CC(=O)NCC(=O)N[C@@H](Cc1c[nH]c2ccccc12)C(=O)N[C@@H](CCC(=O)O)C(=O)N[C@@]1(C)CCC/C=C\CCC[C@@](C)(C(=O)N[C@@H](Cc2c[nH]c3ccccc23)C(=O)N[C@@H](CC(N)=O)C(=O)N[C@@H](CC(C)C)C(=O)N[C@@H](CC(C)C)C(=O)N[C@@H](CCC(N)=O)C(=O)N[C@@H](Cc2ccc(O)cc2)C(=O)N[C@@H](Cc2c[nH]c3ccccc23)C(N)=O)NC(=O)[C@H](Cc2ccc(O)cc2)NC(=O)[C@H](CCCCN)NC(=O)[C@H](CC(C)C)NC1=O (Ac-GWE[S5]LKY[S5]WNLLQYW-NH2; staple (Z) 4-8)
- selectivity ratio [1]: 52.5
- IC50 [2]: 44.2 nM
- CC50 [3]: 2.31 µM

Compound: CC(=O)NCC(=O)N[C@@]1(C)CCC/C=C\CCC[C@@](C)(C(=O)N[C@@H](Cc2ccc(O)cc2)C(=O)N[C@@H](CC(C)C)C(=O)N[C@@H](Cc2c[nH]c3ccccc23)C(=O)N[C@@H](CC(N)=O)C(=O)N[C@@H](CC(C)C)C(=O)N[C@@H](CC(C)C)C(=O)N[C@@H](CCC(N)=O)C(=O)N[C@@H](Cc2ccc(O)cc2)C(=O)N[C@@H](Cc2c[nH]c3ccccc23)C(N)=O)NC(=O)[C@H](CC(C)C)NC(=O)[C@H](C)NC(=O)[C@H](CCC(=O)O)NC1=O (Ac-G[S5]EAL[S5]YLWNLLQYW-NH2; staple (Z) 2-6)
- selectivity ratio [1]: 59.3
- IC50 [2]: 121 nM
- CC50 [3]: 7.18 µM

Compound: CC(=O)N[C@@]1(C)CCC/C=C\CCC[C@@](C)(C(=O)N[C@@H](CCCCN)C(=O)N[C@@H](Cc2ccc(O)cc2)C(=O)N[C@@H](CC(C)C)C(=O)N[C@@H](Cc2c[nH]c3ccccc23)C(=O)N[C@@H](CC(N)=O)C(=O)N[C@@H](CC(C)C)C(=O)N[C@@H](CC(C)C)C(=O)N[C@@H](CCC(N)=O)C(=O)N[C@@H](Cc2ccc(O)cc2)C(=O)N[C@@H](Cc2c[nH]c3ccccc23)C(N)=O)NC(=O)[C@H](C)NC(=O)[C@H](CCC(=O)O)NC(=O)[C@H](Cc2c[nH]c3ccccc23)NC1=O (Ac-[S5]WEA[S5]KYLWNLLQYW-NH2; staple (Z) 1-5)
- selectivity ratio [1]: 78.5
- IC50 [2]: 34.2 nM
- CC50 [3]: 2.67 µM

Compound: CC(=O)N[C@@]1(C)CCC/C=C\CCC[C@@](C)(C(=O)N[C@@H](CCCCN)C(=O)N[C@@H](Cc2ccc(O)cc2)C(=O)N[C@@]2(C)CCC/C=C\CCC[C@@](C)(C(=O)N[C@@H](CCC(N)=O)C(=O)N[C@@H](Cc3ccc(O)cc3)C(=O)N[C@@H](Cc3c[nH]c4ccccc34)C(N)=O)NC(=O)[C@H](CC(C)C)NC(=O)[C@H](CC(N)=O)NC(=O)[C@H](Cc3c[nH]c4ccccc34)NC2=O)NC(=O)[C@H](C)NC(=O)[C@H](CCC(=O)O)NC(=O)[C@H](Cc2c[nH]c3ccccc23)NC1=O (Ac-[S5]WEA[S5]KY[S5]WNL[S5]QYW-NH2; staple (Z) 1-5, 8-12)
- selectivity ratio [1]: 32.6
- IC50 [2]: 124 nM
- CC50 [3]: 4.03 µM

Compound: H-GWEALKYLWNLLQYW-OH
- Vd [4]: 0.0527 L/kg
- Drug uptake [5]: Active
- IC50 [6]: 142 nM
- remaining at 2 h (chymotrypsin): 32.9%
- IC50 [7]: 21.3 nM
- EC50 [8]: 26.1 nM
- Drug uptake [9]: Not Active
- EC50 [10]: 41.9 nM
- selectivity ratio [1]: 60.9
- IC50 [2]: 130 nM
- remaining at 1 h, 1 ug/ml [11]: 80%
- AUC(0-t) at 216 h [12]: 114 µg·h/mL
- CC50 [3]: 7.9 µM
- Stability [13]: Unstable
- Drug uptake [14]: Not Active
- EC50 [15]: 30.5 nM
- Stability [16]: Stable
- clearance [17]: 0.158 mL/min/kg
- EC50 [18]: 371 nM
- EC50 [19]: 25.3 µM
- EC50 [20]: 98 nM
- MRT [21]: 5.4 h
- IC50 [22]: 20.1 nM
- half-life [23]: 228 min
- Stability [24]: Unstable

Compound: enfuvirtide
- EC50 [8]: > 4000 nM
- fraction unbound [25]: 0.187
- IC50 [2]: 48.6 nM
- fraction unbound [26]: 0.041
- EC50 [19]: > 4 µM
- EC50 [20]: > 4000 nM
